Changes are numbered by the printed parent chain.

Results on one compound are retold here after article PMC6286348, “Inhibitor binding mode and allosteric regulation of Na^+-glucose symporters” (Nature Communications, 2018).

Assay [1] deals with hSGLT1 S393A/C. Set-up: method as in PMID 22159082. As to conditions: oocytes, 22 °C; cited from earlier work.
Assay [2] has as its system hSGLT1 F101C. More on the design: method as in PMID 22159082. As to conditions: oocytes, 22 °C; cited from earlier work.
Assay [3] deals with hSGLT1 S392A/C. More on the design: method as in PMID 22159082. The following applies: oocytes, 22 °C; cited from earlier work.
Assay [4] concerns the target T1, hSGLT1 Y290F (Homo sapiens, UniProt P13866, Y290F).
T1 construct: expressed in transfected cells; host or cells: Xenopus laevis oocytes injected with cRNA
T1 sequence (P13866 1-664 Y290F): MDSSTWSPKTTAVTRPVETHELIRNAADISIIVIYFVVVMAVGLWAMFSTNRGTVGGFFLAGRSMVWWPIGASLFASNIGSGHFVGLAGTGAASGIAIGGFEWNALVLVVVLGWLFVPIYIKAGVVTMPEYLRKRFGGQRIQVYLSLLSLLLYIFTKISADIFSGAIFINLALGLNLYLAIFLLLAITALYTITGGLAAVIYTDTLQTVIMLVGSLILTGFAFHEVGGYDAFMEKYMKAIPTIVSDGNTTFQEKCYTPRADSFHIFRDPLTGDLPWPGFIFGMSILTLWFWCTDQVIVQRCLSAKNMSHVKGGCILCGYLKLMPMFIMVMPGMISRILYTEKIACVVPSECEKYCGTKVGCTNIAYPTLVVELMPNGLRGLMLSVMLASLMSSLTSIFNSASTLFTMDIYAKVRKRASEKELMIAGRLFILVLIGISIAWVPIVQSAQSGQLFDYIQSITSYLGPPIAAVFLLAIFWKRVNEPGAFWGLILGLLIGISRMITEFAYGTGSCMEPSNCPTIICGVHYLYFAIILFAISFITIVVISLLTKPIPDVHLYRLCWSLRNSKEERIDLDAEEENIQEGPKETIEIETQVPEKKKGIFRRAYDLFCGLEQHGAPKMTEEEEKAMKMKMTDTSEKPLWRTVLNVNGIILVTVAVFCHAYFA
More on the design: method as in PMID 23116249. As to conditions: oocytes, 22 °C; cited from earlier work.

Assay [5] concerns hSGLT1 Q457C. Set-up: method as in PMID 22159082. As to conditions: oocytes, 22 °C; cited from earlier work.
The target in assay [6] is T2, hSGLT1 wild-type (Homo sapiens, UniProt P13866).
T2 construct: expressed in transfected cells; host or cells: Xenopus laevis oocytes injected with cRNA
T2 sequence (P13866 1-664): T1 sequence (P13866 1-664 Y290F) with F290Y
Put plainly: SGLT current measurement (two electrode voltage clamp) in oocytes, hSGLT1 wild-type. The assay is classed as cell-based. The following applies: apparent affinity from αMDG current vs external Na^+, 10 mM αMDG, 22 °C. The protocol:
Xenopus laevis (Nasco) oocytes (V–VI) were prepared as previously described[20] and injected with 50 nl of cRNA (1 μg/μl). […] Briefly, oocytes were incubated for 30 min in the presence of 50 μM αMDG (5 μM [^14C]αMDG) in a buffer containing (in mM) 100 NaCl, 2 KCl, 1 MgCl2, 1 CaCl2, and 10 N-(2-hydroxyethyl)piperazine-N′-(2-ethanesulfonic acid) (HEPES)/Tris (pH 7.5). After incubation, oocytes were rinsed thoroughly with ice-cold buffer containing (mM) 100 choline Cl^–, 2 KCl, 1 MgCl2, 1 CaCl2, and 10 HEPES/Tris (pH 7.5), individually lysed with 5% sodium dodecyl sulfate, and assayed for radioactivity.
Injected oocytes were incubated at 18 °C, and after 3–4 days, two electrode voltage clamp experiments were performed as previously described. Briefly, SGLT inward glucose currents were measured as a function of the external Na^+ (0–100 mM NaCl), sugar (0–100 mM αMDG), and inhibitors (0.001–100 μM). Steady-state and hSGLT1 capacitive currents were recorded using voltage steps from a holding voltage, Vh of −60 mV, to voltages in the range of −180 to +50 mV in 20 mV increments. The apparent affinity of αMDG, K0.5, was estimated from plots of the inward current as a function of the external αMDG concentration. […] The Na^+-to-αMDG stoichiometry was determined from the reversal potential measurements using the Gibbs free energy as previously described. […]

In assay [7] the test system is hSGLT1 Y290C. Set-up: method as in PMID 22159082. As to conditions: oocytes, 22 °C; cited from earlier work.
The test system of assay [8] is hSGLT1 F453C. Set-up: method as in PMID 22159082. The following applies: oocytes, 22 °C; cited from earlier work.

`[Na+]` [Na^+]: the “K0.5 Na^+” value is 32 ± 3[20] mM in assay [1]; 9 ± 1[20] mM in assay [2]; 122 ± 12[20] mM in assay [3]; 20 ± 1[21] mM in assay [4]; 34 ± 2[20] mM in assay [5]; 36 ± 1 mM in assay [6]. The “K0.5 Na^+” value in assay [7] is 46 ± 5[20] mM; in assay [8], 21 ± 1[20] mM.
